This passage reports Ki, IC50 and EC50 results from ChEMBL document CHEMBL5316353, “Antitarget, Anti-SARS-CoV-2 Leads, Drugs, and the Drug Discovery-Genetics Alliance Perspective” (J Med Chem, 2023).

Experiment [1] in a line: Binding affinity to HCoV-NL63 MPro assessed as inhibition constant. Also noted: species or system Human coronavirus NL63.
The subject of the next experiment is Human coronavirus 229E. The experiment is described as follows: microbe, parasite or virus in culture. To be noted: MRC5.
For experiment [2], the system named is SARS-CoV-2. The experiment is described as follows: Antiviral activity against SARS-CoV-2 Beta assessed as reduction of viral growth. It counts as functional, organism-based. To be noted: Severe acute respiratory syndrome coronavirus 2, Beta.
In experiment [3] the test system is SARS-CoV-2. In words: Antiviral activity against SARS-CoV-2 Omicron assessed as reduction of viral growth. To be noted: Severe acute respiratory syndrome coronavirus 2, Omicron. Format: functional, organism-based.
Experiment [4] deals with SARS-CoV-2. In words: Antiviral activity against SARS-CoV-2 Delta assessed as reduction of viral growth. To be noted: Severe acute respiratory syndrome coronavirus 2, Delta. Format: functional, organism-based.
Experiment [5] concerns SARS-CoV-2. The experiment is described as follows: Antiviral activity against SARS-CoV-2 Gamma assessed as reduction of viral growth. Format: functional, organism-based. The following applies: Severe acute respiratory syndrome coronavirus 2, Gamma.
Experiment [6] concerns SARS-CoV-2. The experiment is described as follows: microbe, parasite or virus in culture. To be noted: Severe acute respiratory syndrome coronavirus 2.
The test system of experiment [7] is SARS-CoV-2. It counts as functional, organism-based. To be noted: Severe acute respiratory syndrome coronavirus 2, HPAEpiC.
Experiment [8] concerns SARS-CoV-2. Format: functional, organism-based. The following applies: Severe acute respiratory syndrome coronavirus 2, Huh-7.
Experiment [9] deals with Middle East respiratory syndrome-related coronavirus. The experiment is described as follows: Antiviral activity against MERS-CoV assessed as inhibition of viral growth by cell-cell fusion assay. Format: functional, organism-based.
Experiment [10] shares this test system. Format: functional, organism-based, Vero E6. The following applies: Vero C1008.
The test system of experiment [11] is SARS-CoV-2. In words: microbe, parasite or virus in culture. The following applies: Severe acute respiratory syndrome coronavirus 2. This is another data set of the same source.
The test system of experiment [12] is Middle East respiratory syndrome-related coronavirus. In words: Antiviral activity against MERS-CoV infected in human Huh-7 cells assessed as reduction of viral growth. It counts as functional, organism-based.
The nature of experiment [13]: Inhibition of MERS-CoV MPro. Also noted: species or system Middle East respiratory syndrome-related coronavirus.
Experiment [14] has as its system Middle East respiratory syndrome-related coronavirus. Format: functional, organism-based. To be noted: Calu-3.
For experiment [15] the test system is unchanged. It counts as functional, organism-based, Vero E6. To be noted: Vero C1008. This is another data set of the same source.

For orientation: Ki means the dissociation constant of the complex between target and ligand, obtained from inhibition or displacement. As usually defined, the IC50 is the point on the concentration scale where inhibition reaches its midpoint. A word on the EC50: it is the concentration that produces a half-maximal response.

Square brackets hold non-standard residues; d marks the D form. Peptide text beside a SMILES is read from it. βAla = NCCC(=O)O

Take `Cc1cc(C(=O)N[C@@H](C)C(=O)N[C@H](C(=O)N[C@@H](CC(C)C)C(=O)N[C@H](/C=C/C(=O)OCc2ccccc2)C[C@@H]2CCNC2=O)C(C)C)no1`: in experiment [1], the Ki turned out to be 11300 nM. The IC50 with Human coronavirus 229E stood at 140 nM.

`COc1ccc(C(=O)Nc2cccc(C(F)(F)F)c2)cc1Nc1nc(-c2cccnc2)c2[nH]ccc2n1`: the EC50 with SARS-CoV-2 [2] was 12.4 nM; in the experiment on SARS-CoV-2 [3], < 6.9 nM; in the experiment with SARS-CoV-2 [4], < 6.9 nM; with SARS-CoV-2 [5], < 6.9 nM.

Take `CN(C)C(=O)COC(=O)Cc1ccc(OC(=O)c2ccc(NC(=N)N)cc2)cc1` [CAMOSTAT]: in the experiment on SARS-CoV-2 [6], it took 700 nM to reach a half-maximal effect (EC50).

For `O=C[C@H](C[C@@H]1CCNC1=O)NC(=O)[C@@H]1[C@H]2CCC[C@H]2CN1C(=O)COc1ccc(Cl)cc1Cl` (single isomer, unassigned), the EC50 was 1.1 nM in the experiment with SARS-CoV-2 [7] and 31 nM in the experiment with SARS-CoV-2 [8].

With `CC[C@H](C)[C@H](NC(=O)[C@H](Cc1ccc(O)cc1)NC(=O)[C@H](CO)NC(=O)[C@H](CCC(=O)O)NC(=O)[C@H](CC(N)=O)NC(=O)[C@H](CC(C)C)NC(=O)[C@H](C)NC(=O)[C@H](CCCCN)NC(=O)[C@@H](NC(=O)[C@@H](NC(=O)[C@H](CCC(N)=O)NC(=O)[C@H](CCC(N)=O)NC(=O)[C@H](CC(C)C)NC(=O)[C@H](CO)NC(=O)[C@H](CC(C)C)NC(=O)[C@H](CCSC)NC(=O)[C@H](CCC(=O)O)NC(=O)[C@H](Cc1ccc(O)cc1)NC(=O)[C@@H](NC(=O)[C@H](CC(C)C)NC(=O)[C@H](CC(=O)O)NC(=O)[C@H](CC(C)C)NC(=O)[C@H](CC(C)C)NC(=O)[C@@H](NC(=O)[C@@H](NC(=O)[C@H](CC(N)=O)NC(=O)[C@@H](NC(=O)[C@H](CCC(N)=O)NC(=O)[C@@H](NC(=O)[C@H](CC(C)C)NC(=O)[C@@H](N)CO)[C@@H](C)O)[C@@H](C)CC)[C@@H](C)O)[C@@H](C)O)[C@@H](C)O)C(C)C)C(C)C)C(=O)N[C@@H](CC(=O)O)C(=O)N[C@@H](CC(C)C)C(=O)N[C@@H](CCCCN)C(=O)N[C@@H](CCCCN)C(=O)N[C@@H](CCC(=O)O)C(=O)N[C@@H](CC(C)C)C(=O)O`, the values for the IC50 in [9] and in experiment [10] were 500 nM and 600 nM, respectively.

For `CC(=O)N[C@@H]1[C@H](Oc2c3cc4cc2Oc2ccc(cc2Cl)[C@@H](O[C@@H]2O[C@@H](CO)[C@@H](O)[C@H](O)[C@@H]2NC(C)=O)[C@@H]2NC(=O)[C@H](NC(=O)[C@@H]4NC(=O)[C@H]4NC(=O)[C@@H](Cc5ccc(c(Cl)c5)O3)NC(=O)[C@H](N)c3ccc(O)c(c3)Oc3cc(O)cc4c3)c3ccc(O)c(c3)-c3c(O[C@H]4O[C@H](CO)[C@@H](O)[C@@H](O)[C@@H]4O)cc(O)cc3[C@@H](C(=O)O)NC2=O)O[C@@H](CO)[C@@H](O)[C@@H]1O`, in the experiment with SARS-CoV-2 [11], the midpoint of inhibition, the IC50, lay at 1600 nM.

Consider `CC(C)C[C@H](NC(=O)[C@H](CCC(=O)O)NC(=O)[C@H](CCC(=O)O)NC(=O)[C@H](CC(C)C)NC(=O)[C@H](CCCCN)NC(=O)[C@H](CCCCN)NC(=O)[C@H](CO)NC(=O)[C@H](CC(C)C)NC(=O)[C@H](CCC(=O)O)NC(=O)[C@H](CCC(=O)O)NC(=O)[C@H](CC(C)C)NC(=O)[C@H](CCCCN)NC(=O)[C@H](CCCCN)NC(=O)[C@H](CO)NC(=O)[C@H](CC(C)C)NC(=O)[C@H](CCC(=O)O)NC(=O)[C@H](CCC(=O)O)NC(=O)[C@H](CC(C)C)NC(=O)[C@H](CCCCN)NC(=O)[C@H](CCCCN)NC(=O)[C@H](CO)NC(=O)[C@H](CC(C)C)NC(=O)[C@H](CCC(=O)O)NC(=O)[C@H](CCC(=O)O)NC(=O)[C@H](CC(C)C)NC(=O)[C@H](CCCCN)NC(=O)[C@H](CCCCN)NC(=O)[C@H](CO)NC(=O)[C@H](CC(C)C)NC(=O)[C@H](CCC(=O)O)NC(=O)[C@H](CCC(=O)O)NC(=O)[C@@H](N)CC(C)C)C(=O)N[C@@H](CO)C(=O)N[C@@H](CCCCN)C(=O)N[C@@H](CCCCN)C(=O)NCCC(=O)N[C@@H](CCCCN)C(=O)O` (H-LEELSKKLEELSKKLEELSKKLEELSKKLEELSKK[βAla]K-OH), for which the 50% effective concentration (EC50) in [12] was found to be 240 nM.

As to `CC(C)(C)OC(=O)Nc1cccn([C@@H](CC2CC2)C(=O)N[C@@H](C[C@@H]2CCNC2=O)C(=O)C(=O)NCc2ccccc2)c1=O`, the IC50 in experiment [13] worked out at 580 nM.

With `CC[C@H](C)[C@H](NC(=O)[C@H](Cc1ccc(O)cc1)NC(=O)[C@H](CO)NC(=O)[C@H](CCC(=O)O)NC(=O)[C@H](CC(N)=O)NC(=O)[C@H](CC(C)C)NC(=O)[C@H](C)NC(=O)[C@H](CCCCN)NC(=O)[C@@H](NC(=O)[C@@H](NC(=O)[C@H](CCC(N)=O)NC(=O)[C@H](CCC(N)=O)NC(=O)[C@H](CC(C)C)NC(=O)[C@H](CO)NC(=O)[C@H](CCCNC(=N)N)NC(=O)[C@H](CCSC)NC(=O)[C@H](CCC(=O)O)NC(=O)[C@H](Cc1ccc(O)cc1)NC(=O)[C@H](CCC(=O)O)NC(=O)[C@H](CC(C)C)NC(=O)[C@H](CC(=O)O)NC(=O)[C@H](CC(C)C)NC(=O)[C@H](CC(C)C)NC(=O)[C@@H](NC(=O)[C@@H](NC(=O)[C@H](CC(N)=O)NC(=O)[C@@H](NC(=O)[C@H](CCC(N)=O)NC(=O)[C@@H](NC(=O)[C@H](CC(C)C)NC(=O)[C@@H](N)CO)[C@@H](C)O)[C@@H](C)CC)[C@@H](C)O)[C@@H](C)O)C(C)C)C(C)C)C(=O)N[C@@H](CC(=O)O)C(=O)N[C@@H](CC(C)C)C(=O)N[C@@H](CCCCN)C(=O)N[C@@H](CCC(=O)O)C(=O)N[C@@H](CC(C)C)C(=O)O`, the IC50 in [14] and in [15] was 550 nM in each case.

Turning to `CC[C@H](C)[C@H](NC(=O)[C@H](Cc1ccc(O)cc1)NC(=O)[C@H](CO)NC(=O)[C@H](CCC(=O)O)NC(=O)[C@H](CCC(=O)O)NC(=O)[C@H](CC(C)C)NC(=O)[C@H](CCCCN)NC(=O)[C@H](CCCCN)NC(=O)[C@@H](NC(=O)[C@@H](NC(=O)[C@H](CCC(=O)O)NC(=O)[C@H](CCC(=O)O)NC(=O)[C@H](CC(C)C)NC(=O)[C@H](CCCCN)NC(=O)[C@H](CCCCN)NC(=O)[C@H](CCSC)NC(=O)[C@H](CCC(=O)O)NC(=O)[C@H](Cc1ccc(O)cc1)NC(=O)[C@H](CCC(=O)O)NC(=O)[C@H](CC(C)C)NC(=O)[C@H](CC(=O)O)NC(=O)[C@H](CC(C)C)NC(=O)[C@H](CC(C)C)NC(=O)[C@@H](NC(=O)[C@@H](NC(=O)[C@H](CC(N)=O)NC(=O)[C@@H](NC(=O)[C@H](CCC(N)=O)NC(=O)[C@@H](NC(=O)[C@H](CC(C)C)NC(=O)[C@@H](N)CO)[C@@H](C)O)[C@@H](C)CC)[C@@H](C)O)[C@@H](C)O)C(C)C)C(C)C)C(=O)N[C@@H](CC(=O)O)C(=O)N[C@@H](CC(C)C)C(=O)N[C@@H](CCCCN)C(=O)N[C@@H](CCC(=O)O)C(=O)N[C@@H](CC(C)C)C(=O)O`, the IC50 in experiment [14] and in experiment [15] was 550 nM each time.
